These results are taken from ChEMBL document CHEMBL4385653, “Design, synthesis, biological evaluation of benzoyl amide derivatives containing nitrogen heterocyclic ring as potential VEGFR-2 inhibitors” (Bioorg Med Chem, 2019).

A short description of data set [1]: Inhibition of PDGFR (unknown origin) incubated for 30 mins by enzyme immunoassay. Also on record: species or system Homo sapiens.
In a further data set the test system is HeLa. Put plainly: Antiproliferative activity against human HeLa cells assessed as inhibition of cell proliferation incubated for 48 hrs by MTT assay. The data set is classed as functional, cell-based.
For data set [2], the target named is Epidermal growth factor receptor (Homo sapiens, UniProt P00533). Put plainly: Inhibition of EGFR (unknown origin) incubated for 30 mins by enzyme immunoassay.
Epidermal growth factor receptor, sequence (P00533 whole entry): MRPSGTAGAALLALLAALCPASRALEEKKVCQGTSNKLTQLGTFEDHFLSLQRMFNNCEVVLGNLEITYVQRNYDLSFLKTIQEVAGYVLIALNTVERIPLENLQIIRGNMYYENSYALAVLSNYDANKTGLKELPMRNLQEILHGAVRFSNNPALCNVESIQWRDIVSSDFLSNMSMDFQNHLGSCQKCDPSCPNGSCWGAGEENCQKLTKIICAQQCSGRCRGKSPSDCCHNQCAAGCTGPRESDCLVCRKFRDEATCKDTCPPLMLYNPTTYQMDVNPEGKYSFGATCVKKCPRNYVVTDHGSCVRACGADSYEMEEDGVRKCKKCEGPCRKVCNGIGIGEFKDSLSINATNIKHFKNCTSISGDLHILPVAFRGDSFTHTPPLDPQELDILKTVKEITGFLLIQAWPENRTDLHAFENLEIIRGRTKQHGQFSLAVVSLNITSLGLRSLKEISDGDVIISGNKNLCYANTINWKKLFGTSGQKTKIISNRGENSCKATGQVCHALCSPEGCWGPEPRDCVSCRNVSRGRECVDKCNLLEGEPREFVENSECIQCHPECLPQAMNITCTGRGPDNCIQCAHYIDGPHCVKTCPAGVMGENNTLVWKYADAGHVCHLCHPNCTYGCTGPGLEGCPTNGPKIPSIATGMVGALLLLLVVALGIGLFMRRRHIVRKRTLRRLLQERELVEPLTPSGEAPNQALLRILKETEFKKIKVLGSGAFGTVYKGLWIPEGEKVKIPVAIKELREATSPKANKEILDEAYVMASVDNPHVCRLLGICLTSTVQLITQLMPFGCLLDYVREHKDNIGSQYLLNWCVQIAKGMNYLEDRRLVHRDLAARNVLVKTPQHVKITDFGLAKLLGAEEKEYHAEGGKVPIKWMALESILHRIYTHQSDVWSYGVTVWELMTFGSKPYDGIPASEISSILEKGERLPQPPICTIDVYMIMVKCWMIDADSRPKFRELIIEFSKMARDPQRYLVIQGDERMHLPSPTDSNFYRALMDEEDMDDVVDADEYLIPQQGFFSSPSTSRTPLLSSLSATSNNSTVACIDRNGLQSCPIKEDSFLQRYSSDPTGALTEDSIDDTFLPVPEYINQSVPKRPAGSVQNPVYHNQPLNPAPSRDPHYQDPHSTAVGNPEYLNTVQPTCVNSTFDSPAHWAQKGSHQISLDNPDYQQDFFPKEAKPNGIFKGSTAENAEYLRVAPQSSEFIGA
Data set [3] has as its system MCF7. As to the kind of experiment: Antiproliferative activity against human MCF7 cells assessed as inhibition of cell proliferation incubated for 48 hrs by MTT assay. The data set is classed as functional, cell-based. To be noted: MCF7, 48 h.
The next data set concerns A549. As to the kind of experiment: Antiproliferative activity against human A549 cells assessed as inhibition of cell proliferation incubated for 48 hrs by MTT assay. The format is functional, cell-based. The conditions noted are these: A549, 48 h.
Data set [4] has as its target Fibroblast growth factor receptor 1 (Homo sapiens, UniProt P11362). As to the kind of experiment: Inhibition of bFGFR (unknown origin) incubated for 30 mins by enzyme immunoassay.
Data set [5] concerns the target Vascular endothelial growth factor receptor 2 (Homo sapiens, UniProt P35968). As to the kind of experiment: Inhibition of VEGFR2 (unknown origin) incubated for 30 mins by enzyme immunoassay.
For another data set, the system named is HepG2. As to the kind of experiment: Antiproliferative activity against human HepG2 cells assessed as inhibition of cell proliferation incubated for 48 hrs by MTT assay. The data set is classed as functional, cell-based. The conditions noted are these: HepG2, 48 h.
Data set [6] is described as follows: Cytotoxicity in HEK293T cells assessed as reduction in cell viability incubated for 48 hrs by MTT assay. The format is cell-based, HEK-293T. The conditions noted are these: human.
The subject of data set [7] is MCF7. Put plainly: Induction of apoptosis in human MCF7 cells incubated for 24 hrs by Annexin V-FITC/PI double staining based flow cytometry analysis. The format is functional, cell-based.

Structures are written as SMILES. pIC50: −log10 of the molar value. Where only a bound is given, the exact number is not on record here.

Vascular endothelial growth factor receptor 2, sequence (P35968 whole entry): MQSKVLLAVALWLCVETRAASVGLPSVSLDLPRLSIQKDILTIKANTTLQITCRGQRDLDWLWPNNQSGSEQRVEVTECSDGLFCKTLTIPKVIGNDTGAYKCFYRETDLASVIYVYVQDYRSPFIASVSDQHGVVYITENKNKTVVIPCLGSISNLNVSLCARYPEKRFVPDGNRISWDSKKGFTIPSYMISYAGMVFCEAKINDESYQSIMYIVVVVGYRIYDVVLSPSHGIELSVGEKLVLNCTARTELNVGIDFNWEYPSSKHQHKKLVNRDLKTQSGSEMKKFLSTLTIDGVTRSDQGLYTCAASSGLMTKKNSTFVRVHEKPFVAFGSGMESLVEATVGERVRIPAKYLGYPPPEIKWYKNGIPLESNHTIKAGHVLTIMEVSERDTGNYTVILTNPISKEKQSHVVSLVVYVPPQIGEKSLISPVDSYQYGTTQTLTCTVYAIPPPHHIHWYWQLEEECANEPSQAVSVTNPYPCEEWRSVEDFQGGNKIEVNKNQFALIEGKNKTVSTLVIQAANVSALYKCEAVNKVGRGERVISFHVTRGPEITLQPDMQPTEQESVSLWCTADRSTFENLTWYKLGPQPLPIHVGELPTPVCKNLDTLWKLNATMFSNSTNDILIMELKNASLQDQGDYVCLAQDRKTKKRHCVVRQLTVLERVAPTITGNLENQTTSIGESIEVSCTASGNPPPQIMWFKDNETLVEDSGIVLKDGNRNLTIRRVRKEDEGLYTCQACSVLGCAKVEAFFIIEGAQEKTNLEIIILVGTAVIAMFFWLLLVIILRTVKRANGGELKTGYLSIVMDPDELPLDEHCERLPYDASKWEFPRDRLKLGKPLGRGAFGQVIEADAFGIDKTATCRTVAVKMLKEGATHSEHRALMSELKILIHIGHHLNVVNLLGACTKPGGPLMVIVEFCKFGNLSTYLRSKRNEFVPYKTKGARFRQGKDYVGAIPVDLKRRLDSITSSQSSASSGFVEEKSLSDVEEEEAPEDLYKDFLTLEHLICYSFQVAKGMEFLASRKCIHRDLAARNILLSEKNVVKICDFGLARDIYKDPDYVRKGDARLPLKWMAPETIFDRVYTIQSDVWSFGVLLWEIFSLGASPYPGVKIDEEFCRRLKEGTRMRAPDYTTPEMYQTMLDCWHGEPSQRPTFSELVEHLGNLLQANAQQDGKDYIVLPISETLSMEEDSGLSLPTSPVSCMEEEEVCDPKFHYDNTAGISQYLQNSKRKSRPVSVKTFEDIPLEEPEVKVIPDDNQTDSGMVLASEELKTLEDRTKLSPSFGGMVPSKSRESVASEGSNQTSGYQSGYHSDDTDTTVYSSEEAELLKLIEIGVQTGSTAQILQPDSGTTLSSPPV
Fibroblast growth factor receptor 1, sequence (P11362 whole entry): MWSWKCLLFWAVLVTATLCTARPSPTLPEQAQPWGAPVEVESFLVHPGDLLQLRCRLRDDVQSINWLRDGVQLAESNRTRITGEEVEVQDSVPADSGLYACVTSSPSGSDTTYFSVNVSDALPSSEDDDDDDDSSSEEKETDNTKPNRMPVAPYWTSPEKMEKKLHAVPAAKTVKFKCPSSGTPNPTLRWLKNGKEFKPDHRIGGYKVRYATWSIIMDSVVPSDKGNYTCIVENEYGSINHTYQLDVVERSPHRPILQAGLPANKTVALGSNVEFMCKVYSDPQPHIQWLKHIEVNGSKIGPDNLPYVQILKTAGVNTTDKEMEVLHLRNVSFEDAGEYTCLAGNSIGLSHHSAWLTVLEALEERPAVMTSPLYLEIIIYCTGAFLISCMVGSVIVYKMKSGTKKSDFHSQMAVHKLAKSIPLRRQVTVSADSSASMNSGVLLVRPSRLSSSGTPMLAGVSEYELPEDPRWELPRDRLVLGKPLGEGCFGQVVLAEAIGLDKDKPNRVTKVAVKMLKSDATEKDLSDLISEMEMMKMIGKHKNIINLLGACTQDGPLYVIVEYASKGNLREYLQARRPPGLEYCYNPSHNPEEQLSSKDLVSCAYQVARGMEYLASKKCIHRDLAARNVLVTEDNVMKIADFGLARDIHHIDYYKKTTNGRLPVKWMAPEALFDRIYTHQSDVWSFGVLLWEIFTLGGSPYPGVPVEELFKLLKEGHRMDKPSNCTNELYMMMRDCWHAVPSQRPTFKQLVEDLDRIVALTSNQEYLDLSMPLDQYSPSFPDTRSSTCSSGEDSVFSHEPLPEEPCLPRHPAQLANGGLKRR

Turning to `COc1ccc(-n2cc(NC(=O)c3ccc(NS(=O)(=O)c4ccccc4)cc3)cn2)cc1`, the pIC50 was 4.43 in data set [1]; 4.33 in the data set with HeLa; 4.58 in [2]; 4.59 in the data set with MCF7 [3]; 4.07 with A549; 4.34 in data set [4]. For the same compound, the results for the pIC50 (in data set [5]; in the data set with HepG2) were 4.84 and 4.24, respectively.
As to `O=C(Nc1cnn(-c2ccccc2)c1)c1ccc(NS(=O)(=O)c2ccc(Cl)cc2)cc1`, the CC50 at 48 h in data set [6] was 125 µM. Further, the pIC50 in data set [1] was 4.71; in the data set with HeLa it was 4.73; with MCF7 [3] it was 5.28; in the data set with A549, 4.47; in data set [4], 4.67; in data set [5], 5.43. The pIC50 with HepG2 is 4.82.
As for `O=C(Nc1cnn(-c2ccccc2)c1)c1ccc(NS(=O)(=O)c2ccccc2)cc1`, the pIC50 is 4.46 in data set [1]; 4.43 in the data set with HeLa; 4.59 in [2]; 4.77 in the data set with MCF7 [3]; 4.06 in the data set with A549; 4.45 in data set [4]. Moreover, the pIC50 in data set [5] was 4.99; with HepG2 it was 4.67.
On to `Cc1ccc(-n2cc(NC(=O)c3ccc(NS(=O)(=O)c4ccccc4)cc3)cn2)cc1`, for which, in data set [6], the CC50 at 48 h turned out to be 107 µM. Further, the pIC50 in [1] was 4.59; with HeLa, 4.55; in [2], 4.74; in the data set with MCF7 [3], 4.96; with A549, 4.26; in data set [4] it was 4.55. For the same compound, the pIC50 was 5.16 in data set [5] and 4.74 in the data set with HepG2.
On to `COc1cccc(-n2cc(NC(=O)c3ccc(NS(=O)(=O)c4ccccc4)cc3)cn2)c1`, for which the pIC50 in data set [1] was 4.40; in the data set on HeLa, 4.18; in data set [2] it was 4.62; in the data set on MCF7 [3], 4.55; with A549, under 4.00; in data set [4], 4.32. The pIC50 in data set [5] is 4.79; with HepG2, 4.19.
Turning to `Cn1cc(NC(=O)c2cccc(NS(=O)(=O)c3ccccc3)c2)cn1`, the pIC50 in data set [1] was 4.38; with HeLa, 4.11; in data set [2], 4.46; in the data set with MCF7 [3] it was 4.39; with A549, under 4.00; in [4], 4.24. Moreover, the pIC50 in [5] was 4.69; in the data set with HepG2, 4.07.
For the compound `O=C(Nc1cnn(-c2ccccc2)c1)c1cccc(NS(=O)(=O)c2ccccc2)c1`, the CC50 at 48 h in data set [6] stood at 110 µM. The pIC50 in [1] was 4.73; with HeLa, 4.81; in data set [2], 4.81; in the data set on MCF7 [3], 5.36; with A549, 4.57; in data set [4], 4.74. Further, the pIC50 in data set [5] is 5.49; in the data set on HepG2, 5.00.
Consider `Cn1cc(NC(=O)c2ccc(NS(=O)(=O)c3ccccc3)cc2)cn1`, for which the pIC50 is 4.37 in data set [1]; 4.03 in the data set with HeLa; 4.43 in data set [2]; 4.23 in the data set on MCF7 [3]; under 4.00 with A549; 4.21 in data set [4]. In addition, the pIC50 is 4.60 in data set [5] and under 4.00 with HepG2.
With `COc1cccc(-n2cc(NC(=O)c3cccc(NS(=O)(=O)c4ccccc4)c3)cn2)c1`, the pIC50 in [1] was 4.56; in the data set on HeLa, 4.58; in [2], 4.64; with MCF7 [3], 4.78; with A549 it was 4.09; in data set [4], 4.48. In addition, the pIC50 was 5.04 in [5] and 4.60 in the data set with HepG2.
As to `Cc1ccc(-n2cc(NC(=O)c3ccc(NS(=O)(=O)c4ccc(Cl)cc4)cc3)cn2)cc1`, the CC50 at 48 h in data set [6] came to 138 µM. Besides, the pIC50 in [1] is 4.80; with HeLa, 5.10; in data set [2], 4.90; with MCF7 [3], 5.40; in the data set with A549 it was 4.66; in data set [4], 4.79. Further, the negative-log IC50 (pIC50) in data set [5] was 5.54; in the data set on HepG2, 5.01.
As to `Cn1cc(NC(=O)c2cccc(NS(=O)(=O)c3ccc(Cl)cc3)c2)cn1`, the pIC50 is 4.40 in data set [1]; 4.20 with HeLa; 4.49 in the data set with MCF7 [3]; under 4.00 in the data set with A549; 4.23 in [4]; 4.76 in data set [5]. Also, in the data set on HepG2, the pIC50 is 4.08.
Regarding `COc1cc2/c(=N/c3ccc(Br)cc3F)nc[nH]c2cc1OCC1CCN(C)CC1` [VANDETANIB], the pIC50 in data set [1] is 5.88; with HeLa it was 5.18; with MCF7 [3], 5.85; in the data set with A549, 4.74; in the data set with HepG2, 5.61. In addition, in the data set with MCF7 [7], the Activity result was “Dose-dependent effect”.
As to `COc1cccc(-n2cc(NC(=O)c3cccc(NS(=O)(=O)c4ccc(Cl)cc4)c3)cn2)c1`, the CC50 at 48 h in [6] turned out to be 133 µM. Also, the pIC50 in [1] is 4.61; with HeLa, 4.60; in data set [2], 4.81; in the data set with MCF7 [3] it was 5.03; with A549 it was 4.35; in data set [4], 4.65. For the same compound, the pIC50 in [5] is 5.22; in the data set on HepG2 it was 4.71.
`COc1ccc(-n2cc(NC(=O)c3ccc(NS(=O)(=O)c4ccc(Cl)cc4)cc3)cn2)cc1`: the pIC50 in [1] was 4.58; in the data set on HeLa, 4.60; in data set [2], 4.79; with MCF7 [3] it was 4.81; in the data set on A549 it was 4.21; in data set [4], 4.58. Moreover, the pIC50 in [5] is 5.15; in the data set on HepG2, 4.72.
On to `COc1ccc(-n2cc(NC(=O)c3cccc(NS(=O)(=O)c4ccc(Cl)cc4)c3)cn2)cc1`, for which the CC50 at 48 h in data set [6] was determined as 89.8 µM. The pIC50 in data set [1] is 4.66; in the data set on HeLa, 4.70; in [2], 4.81; with MCF7 [3] it was 5.06; in the data set on A549 it was 4.53; in data set [4] it was 4.59. Also, the pIC50 was 5.29 in [5] and 4.82 in the data set with HepG2.
Take `Cc1ccc(-n2cc(NC(=O)c3cccc(NS(=O)(=O)c4ccccc4)c3)cn2)cc1`: the CC50 at 48 h in [6] is 93.8 µM. For the same compound, the pIC50 in [1] is 4.80; in the data set on HeLa it was 5.51; in data set [2], 5.02; in the data set on MCF7 [3] it was 5.77; in the data set on A549 it was 4.72; in [4] it was 4.79. Also, the pIC50 is 6.24 in data set [5] and 5.22 in the data set on HepG2.
In the case of `O=C(Nc1cnn(-c2ccccc2)c1)c1cccc(NS(=O)(=O)c2ccc(Cl)cc2)c1`, in data set [6], the CC50 at 48 h came out at 120 µM. Also, the pIC50 in data set [1] was 4.75; with HeLa, 5.27; in data set [2] it was 4.98; in the data set on MCF7 [3], 5.50; in the data set with A549, 4.71; in data set [4], 4.73. Moreover, the pIC50 was 5.62 in [5] and 5.07 in the data set with HepG2.
In the case of `COc1ccc(-n2cc(NC(=O)c3cccc(NS(=O)(=O)c4ccccc4)c3)cn2)cc1`, the pIC50 in [1] was 4.42; with HeLa, 4.37; in data set [2], 4.57; with MCF7 [3], 4.73; in the data set on A549, 4.11; in data set [4], 4.43. Moreover, the pIC50 in data set [5] is 4.98; in the data set on HepG2 it was 4.45.
For the compound `COc1cc2c(Nc3ccc(Br)cc3F)ncnc2cc1OCC1CCN(C)CC1` [VANDETANIB], the CC50 at 48 h in data set [6] is 172 µM.
